Results from PubChem BioAssay AID330 (DTP/NCI, 2004).
Values joined by “and” are separate entries in the source; they are usually repeats but may differ in a detail not shown here. Equal values may be shown once. Inconclusive results and toxic doses are left out.

System: P388 leukemia ip, CD2F1 mice, survival T/C
Test: NCI In Vivo Anticancer Drug Screen. Data for tumor model P388 Leukemia (intraperitoneal) in CD2F1 (CDF1) mice
Conditions: endpoint: median survival time, higher = longer survival
In short: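 Mice carrying the transplanted tumor received test compound or vehicle. Survival was recorded in each group, and the value is the treated-group measurement divided by that of the vehicle-treated control group.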

[1] = dose: 50.0 mg/kg/injection, schedule: Q01DX009 (ip), vehicle: saline with Tween-80
[2] = dose: 100.0 mg/kg/injection, schedule: Q01DX009 (ip), vehicle: saline with Tween-80
[3] = dose: 200.0 mg/kg/injection, schedule: Q01DX009 (ip), vehicle: saline with Tween-80

Question: What does the source list for `CCO/C=C1/N=C(COc2ccc(Cl)cc2C)OC1=O`?
Answer: T/C (dose: 60.0 mg/kg/injection, schedule: Q01DX005 (ip), vehicle: saline with Tween-80): 101 % of control; T/C (dose: 120.0 mg/kg/injection, schedule: Q01DX005 (ip), vehicle: saline with Tween-80): 108 % of control; T/C (dose: 240.0 mg/kg/injection, schedule: Q01DX005 (ip), vehicle: saline with Tween-80): 95 % of control

Question: How did the T/C (dose: 3.12 mg/kg/injection, schedule: Q01DX005 (ip), vehicle: saline with Tween-80) turn out when `N#CN(Cc1ccccc1)C(c1ccccc1)(c1ccccc1)c1ccccc1.[Cl][Sn]([c]1ccccc1)([c]1ccccc1)[c]1ccccc1` was run?
Answer: The T/C was 91 % of control.

Question: What about the T/C (dose: 6.25 mg/kg/injection, schedule: Q01DX005 (ip), vehicle: saline with Tween-80) of the same compound?
Answer: The T/C was 98 % of control.

Question: What about the T/C (dose: 12.5 mg/kg/injection, schedule: Q01DX005 (ip), vehicle: saline with Tween-80) of the same compound?
Answer: Its T/C is 91 % of control.

Question: Which results are given for `N#C/C=C/c1cccc([N+](=O)[O-])c1`?
Answer: T/C (dose: 100.0 mg/kg/injection, schedule: Q01DX001 (ip), vehicle: saline with Tween-80): 100 % of control; T/C (dose: 200.0 mg/kg/injection, schedule: Q01DX001 (ip), vehicle: saline with Tween-80): 100 % of control; T/C (dose: 400.0 mg/kg/injection, schedule: Q01DX001 (ip), vehicle: saline with Tween-80): 100 % of control

Question: With `CC(=O)Nc1nccs1.CC(=O)Nc1nccs1.[Cl][Pt][Cl]` as the compound, how does the T/C (dose: 100.0 mg/kg/injection, schedule: Q04DX002 (ip), vehicle: saline with Tween-80) read?
Answer: Its T/C is 93 % of control.

Question: And the T/C (dose: 200.0 mg/kg/injection, schedule: Q04DX002 (ip), vehicle: saline with Tween-80)?
Answer: Its T/C is 91 % of control.

Question: How did the T/C (dose: 6.25 mg/kg/injection, schedule: Q04DX002 (ip), vehicle: distilled water + Tween-80) turn out when `Cc1c2ccnc(C(N)=O)c2c(C)c2c1[nH]c1ccccc12` was run?
Answer: The T/C was 99 % of control.

Question: And the T/C (dose: 6.25 mg/kg/injection, schedule: Q04DX003 (ip), vehicle: distilled water + Tween-80)?
Answer: The T/C was 111 % of control.

Question: What about the T/C (dose: 12.5 mg/kg/injection, schedule: Q04DX002 (ip), vehicle: distilled water + Tween-80) of the same compound?
Answer: Its T/C is 99 % of control.

Question: And the T/C (dose: 12.5 mg/kg/injection, schedule: Q04DX003 (ip), vehicle: distilled water + Tween-80)?
Answer: Its T/C is 112 % of control.

Question: And the T/C (dose: 25.0 mg/kg/injection, schedule: Q04DX002 (ip), vehicle: distilled water + Tween-80)?
Answer: The T/C was 99 % of control.

Question: And the T/C (dose: 25.0 mg/kg/injection, schedule: Q04DX003 (ip), vehicle: distilled water + Tween-80)?
Answer: Its T/C is 112 % of control.

Question: And the T/C (dose: 50.0 mg/kg/injection, schedule: Q04DX002 (ip), vehicle: distilled water + Tween-80)?
Answer: Its T/C is 104 % of control.

Question: And the T/C (dose: 50.0 mg/kg/injection, schedule: Q04DX003 (ip), vehicle: distilled water + Tween-80)?
Answer: The T/C was 104 % of control.

Question: What about the T/C (dose: 100.0 mg/kg/injection, schedule: Q04DX002 (ip), vehicle: distilled water + Tween-80) of the same compound?
Answer: The T/C was 104 % of control and 111 % of control.

Question: And the T/C (dose: 100.0 mg/kg/injection, schedule: Q04DX003 (ip), vehicle: distilled water + Tween-80)?
Answer: The T/C was 111 % of control.

Question: What about the T/C (dose: 200.0 mg/kg/injection, schedule: Q04DX002 (ip), vehicle: distilled water + Tween-80) of the same compound?
Answer: Its T/C is 118 % of control.

Question: What about the T/C (dose: 200.0 mg/kg/injection, schedule: Q04DX003 (ip), vehicle: distilled water + Tween-80) of the same compound?
Answer: The T/C was 115 % of control.

Question: And the T/C (dose: 800.0 mg/kg/injection, schedule: Q04DX002 (ip), vehicle: distilled water + Tween-80)?
Answer: The T/C was 155 % of control.

Question: With `Cc1[nH]c(=O)[nH]c(=O)c1C=O` as the compound, how does the T/C [1] read?
Answer: The T/C was 103 % of control.

Question: And the T/C [2]?
Answer: The T/C was 106 % of control.

Question: What about the T/C [3] of the same compound?
Answer: The T/C was 99 % of control.

Question: How did the T/C (dose: 50.0 mg/kg/injection, schedule: Q01DX005 (ip), vehicle: saline with Tween-80) turn out when `CS(=O)(=O)OCCCCCCCCCCCN1CCOCC1` was run?
Answer: The T/C was 98 % of control.

Question: And the T/C (dose: 100.0 mg/kg/injection, schedule: Q01DX005 (ip), vehicle: saline with Tween-80)?
Answer: The T/C was 94 % of control.

Question: Which results are given for `CN1CCCN2CCCN(C)P12`?
Answer: T/C (dose: 6.25 mg/kg/injection, schedule: Q01DX005 (ip), vehicle: saline): 99 % of control; T/C (dose: 12.5 mg/kg/injection, schedule: Q01DX005 (ip), vehicle: saline): 98 % of control; T/C (dose: 25.0 mg/kg/injection, schedule: Q01DX005 (ip), vehicle: saline): 105 % of control

Question: `C1=CC(=C(C2CCC(Nc3ccccc3)CC2)C2CCC(Nc3ccccc3)CC2)C=CC1=Nc1ccccc1` (stereo not drawn) was tested. Which T/C [1] did it give?
Answer: Its T/C is 100 % of control.

Question: And the T/C [2]?
Answer: The T/C was 109 % of control.

Question: What about the T/C [3] of the same compound?
Answer: The T/C was 109 % of control.

Question: With `OC1(c2ccc(Cl)cc2)c2ccccc2COc2ccccc21` (stereo not drawn) as the compound, how does the T/C (dose: 100.0 mg/kg/injection, schedule: Q01DX001 (ip), vehicle: Klucel (hydroxypropylcellulose) (HPC)) read?
Answer: Its T/C is 102 % of control.

Question: And the T/C (dose: 200.0 mg/kg/injection, schedule: Q01DX001 (ip), vehicle: Klucel (hydroxypropylcellulose) (HPC))?
Answer: The T/C was 100 % of control.

Question: And the T/C (dose: 400.0 mg/kg/injection, schedule: Q01DX001 (ip), vehicle: Klucel (hydroxypropylcellulose) (HPC))?
Answer: Its T/C is 100 % of control.
